Assay results reported in patent US20120142028A1, “[…] […] ANTI-CANCER RESPONSE TO EPIDERMAL GROWTH FACTOR RECEPTOR KINASE INHIBITORS” (OSI Pharmaceuticals, LLC, priority 2009, published 2012).
Where “and” joins values, the source holds several entries; their conditions need not be identical. Identical values can stand only once. Entries after “also recorded” stand apart in the source; their conditions may differ.

System: patients who had had progression after standard chemotherapy for non-small-cell lung cancer
Experiment: NCIC CTG BR.21 Phase 3 trial of TARCEVA vs placebo; survival and PFS by tumor E-cadherin/vimentin IHC status
Type: in vivo, human
Conditions: for Hazard Ratio (H/L) (95% CI) / Median Survival / Median PFS: Erlotinib arm; for Hazard Ratio (95% CI): Erlotinib vs. Placebo; for Median PFS: progression free survival
Protocol: The NCIC CTG. BR.21 study was a Phase 3 trial of TARCEVA® involving patients who had had progression after standard chemotherapy for non-small-cell lung cancer (i.e. 2nd and 3rd line NSCLC; Shepherd F A, et al. N Engl. J. Med 2005; 353:123-132.). Patients were randomly assigned in a 2:1 ratio to receive 150 mg of TARCEVA® (erlotinib HCl) daily or placebo. The primary end point was overall survival. Progression free survival and response were secondary end points. Separate written consent was obtained for optional tissue banking and correlative studies.
Because the BR21 trial is one of the few TARCEVA® clinical trials that includes a large number of patients and an untreated placebo group, it is optimally designed to evaluate the predictive and prognostic potential of biomarkers. As such, the potential of vimentin and E-cadherin protein expression to serve as a predictive biomarker for overall survival and […] was assessed using remaining tumor samples from the BR21 study. IHC analysis of tumor tissue samples received from NCIC was used to determine E-Cadherin and vimentin protein expression. Sensitivity analyses were performed to determine optimal cut points for E-Cadherin and vimentin staining for classification of E-Cadherin and vimentin as “High” or “Low” for use as prognostic and/or predictive markers for survival and progression-free survival. Further analyses were performed to evaluate possible correlations of biomarker status with clinical outcomes of survival, progression-free survival, response and disease control.
Stained slides were scored by an experienced pathologist. Slides were first evaluated for quality of tissue and quality of staining Acceptable slides were then evaluated, with the pathologist generating an ‘H-1-score’ based on a subjective interpretation of the staining intensity of the chromagen labeled antibody. Four intensity levels were used in scoring the stained sections: 0 for no staining, +1 for weak or minimal staining, +2 for moderate staining, and +3 for strong staining. The relative percentage of total target cells expressing an intensity level is recorded as data.
Treatment groups as randomized (ITT population) were analyzed using all patients with evaluable tissue. Disease progression as assessed by the investigator was used for PFS (Progression Free Survival) analysis. Potential predictive benefit of E-Cadherin or vimentin expression was assessed by comparing trends in the hazard ratios. No treatments by biomarker interaction tests were performed. Three Scoring Methods were used for E-Cadherin and Vimentin: • 1. % Any Staining of tumor cells • 2. % of tumor cell Staining of Intensity +2 or +3 • 3. Composite Score Example: A sample read as 5% unstained, 35% staining of intensity +1, 45% staining of intensity +2, and 15% staining of intensity +3, would be scored as follows: • 95% any staining • 60% staining of intensity +2 or +3 • 0(5)+1(35)+2(45)+3(15)=Composite Score of 170 Overall survival is defined as the time from the study treatment start date to the date of death. If the patient receives the study treatment but the patient is still alive or a death date is unavailable, overall survival is calculated as the difference between the study treatment start date and the last date the patient was known to be alive. […] Progression free survival (PFS) is defined as the time from the study treatment start date to the documentation date of disease progression or the death date. As with overall survival, if no progression/death date is available, the PFS is calculated as the time from the study treatment start date to the last documented tumor assessment date, and is noted to be “censored”.
Table 6 illustrates the numbers of patients in each treatment arm who were E-Cadherin high vs. low, and vimentin high vs. low for the subset of patients for whom E-Cadherin and vimentin results were available (N=95). P-values are determined from univariate Kaplan-Meier analyses. […]

[1] = overall survival, E-Cadherin High
[2] = overall survival, E-Cadherin Low
[3] = overall survival, E-Cadherin/Vimentin High/High
[4] = overall survival, E-Cadherin/Vimentin High/Low
[5] = overall survival, E-Cadherin/Vimentin Low/High
[6] = overall survival, E-Cadherin/Vimentin Low/Low
[7] = overall survival, Patients with Known E-Cadherin Results
[8] = overall survival, Patients with Known Vimentin Results
[9] = overall survival, Vimentin High

C#Cc1cccc(Nc2ncnc3cc(OCCOC)c(OCCOC)cc23)c1 [Erlotinib, [6,7-bis(2-methoxyethoxy)-4-quinazolin-4-yl]-(3-ethynylphenyl)amine]
Kaplan-Meier overall survival, Erlotinib arm compared to Placebo arm (E-Cadherin high subset (FIG. 3)): more favorable
Kaplan-Meier progression free survival, Erlotinib arm compared to Placebo arm (E-Cadherin high subset (FIG. 4)): more favorable
Kaplan-Meier overall survival, Erlotinib arm compared to Placebo arm (E-Cadherin low subset (FIG. 3)): switched in direction but smaller in magnitude
Kaplan-Meier progression free survival, Erlotinib arm compared to Placebo arm (E-Cadherin low subset (FIG. 4)): switched in direction but smaller in magnitude
Kaplan-Meier overall survival, E-Cadherin high subset compared to E-Cadherin low subset (Erlotinib arm (FIG. 3)): more favorable
Kaplan-Meier progression free survival, E-Cadherin high subset compared to E-Cadherin low subset (Erlotinib arm (FIG. 4)): more favorable
Kaplan-Meier overall survival, vimentin high subset compared to vimentin low subset (Erlotinib arm (FIG. 5)): more favorable; also recorded: longer
Kaplan-Meier progression free survival, vimentin high subset compared to vimentin low subset (Erlotinib arm (FIG. 6)): more favorable; also recorded: longer
Hazard Ratio (H/L) (95% CI) (PFS, E-Cadherin High vs. E-Cadherin Low (cut-point 40% staining of intensity +2 or +3)): 0.571 and 0.57
Hazard Ratio (H/L) (95% CI) (PFS, Vimentin High vs. Vimentin Low): 0.43
Hazard Ratio (95% CI) (PFS, All Patients): 0.64
Hazard Ratio (95% CI) (PFS, E-Cadherin High): 0.52
Hazard Ratio (95% CI) (PFS, E-Cadherin Low): 1.18
Hazard Ratio (95% CI) (PFS, E-Cadherin/Vimentin High/High): 0.235
Hazard Ratio (95% CI) (PFS, E-Cadherin/Vimentin High/Low): 0.73
Hazard Ratio (95% CI) (PFS, E-Cadherin/Vimentin Low/High): 0.24
Hazard Ratio (95% CI) (PFS, E-Cadherin/Vimentin Low/Low): 2.75
Hazard Ratio (95% CI) (PFS, Patients with Known E-Cadherin Results): 0.72
Hazard Ratio (95% CI) (PFS, Patients with Known Vimentin Results): 0.72
Hazard Ratio (95% CI) (PFS, Vimentin High): 0.28
Hazard Ratio (95% CI) (PFS, Vimentin Low): 1.11
Median Survival (overall survival, All Patients): 6.67 Months
Median Survival [1]: 11.3 Months
Hazard Ratio (H/L) (95% CI) (overall survival, E-Cadherin High vs. E-Cadherin Low (cut-point 40% staining of intensity +2 or +3)): 0.682 and 0.68
Median Survival [2]: 4.86 Months
Median Survival [3]: 10.38 Months
Median Survival [4]: 12.06 Months
Median Survival [5]: 10.7 Months
Median Survival [6]: 4.81 Months
Median Survival [7]: 8.44 Months
Median Survival [8]: 8.44 Months
Median Survival [9]: 10.55 Months
Hazard Ratio (H/L) (95% CI) (overall survival, Vimentin High vs. Vimentin Low): 0.65
Median Survival (overall survival, Vimentin Low): 6.11 Months
Hazard Ratio (95% CI) (overall survival, All Patients): 0.76
Hazard Ratio (95% CI) [1]: 0.47
Hazard Ratio (95% CI) [2]: 1.12
Hazard Ratio (95% CI) [3]: 0.31
Hazard Ratio (95% CI) [4]: 0.57
Hazard Ratio (95% CI) [5]: 0.26
Hazard Ratio (95% CI) [6]: 2.44
Hazard Ratio (95% CI) [7]: 0.69
Hazard Ratio (95% CI) [8]: 0.69
Hazard Ratio (95% CI) [9]: 0.26
Hazard Ratio (95% CI) (overall survival, Vimentin Low): 0.99
Median PFS (All Patients): 2.23 Months
Median PFS (E-Cadherin High): 3.68 Months
Median PFS (E-Cadherin Low): 1.97 Months
Median PFS (E-Cadherin/Vimentin High/High): 8.02 Months
Median PFS (E-Cadherin/Vimentin High/Low): 2.66 Months
Median PFS (E-Cadherin/Vimentin Low/High): 3.61 Months
Median PFS (E-Cadherin/Vimentin Low/Low): 1.69 Months
Median PFS (Patients with Known E-Cadherin Results): 2.38 Months
Median PFS (Patients with Known Vimentin Results): 2.38 Months
Median PFS (Vimentin High): 5.39 Months
Median PFS (Vimentin Low): 2.18 Months
survival when treated with TARCEVA (subset of treated patients with high E-cadherin expression): longer survival
survival when treated with TARCEVA (subset of treated patients with high vimentin expression): significantly longer survival
Kaplan-Meier overall survival, Erlotinib arm compared to Placebo arm (vimentin high subset (FIG. 5)): more favorable
Kaplan-Meier progression free survival, Erlotinib arm compared to Placebo arm (vimentin high subset (FIG. 6)): more favorable
Kaplan-Meier overall survival, Erlotinib arm compared to Placebo arm (vimentin low subset (FIG. 5)): no difference
Kaplan-Meier progression free survival, Erlotinib arm compared to Placebo arm (vimentin low subset (FIG. 6)): no difference
